The results in this text go back to patent publication US11787785B2 (NOVARTIS AG, priority 2021, dated 2023).

This assay addresses T1, WIZ protein (HiBit-WIZ fusion protein) (Homo sapiens, UniProt O95785+Q96SW2).
T1 construct: expressed in transfected cells
Put plainly: Quantification of WIZ protein levels in HiBit tag fusion protein assay (WIZ HiBit assay in 293T cells). Type of assay: cell-based. Conditions: for Dmax at 25 µM / remaining activity at 25 µM: HEK-293T, 293T cells; for Dmax at 25 µM: 100 − Amax, read-out: % degradation of WIZ (100 − Amax); for remaining activity at 25 µM: DMSO-normalized, curve-fitted percentage of WIZ-HiBit remaining at 25 uM, read-out: WIZ Amax; for DC50: WIZ HiBit assay in 293T cells, 10-point, 5-fold dose response, highest concentration 25 μM, about 18 hours, read-out: WIZ AC50. The procedure, abridged: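 Luminescence after LgBit complementation quantified remaining HiBit-WIZ in lysates of single-copy stable 293T lines. Cells dosed ~18 h at 37 °C with 10-point, 5-fold dilutions (highest 25 μM); DMSO set to 100%, fitted curve gave % remaining at 25 μM (Amax).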
Background: The HiBiT peptide binds its large partner to form an active luciferase.

Each structure is given as a SMILES string.

T1 sequence (O95785 whole entry, the tested form may be a part): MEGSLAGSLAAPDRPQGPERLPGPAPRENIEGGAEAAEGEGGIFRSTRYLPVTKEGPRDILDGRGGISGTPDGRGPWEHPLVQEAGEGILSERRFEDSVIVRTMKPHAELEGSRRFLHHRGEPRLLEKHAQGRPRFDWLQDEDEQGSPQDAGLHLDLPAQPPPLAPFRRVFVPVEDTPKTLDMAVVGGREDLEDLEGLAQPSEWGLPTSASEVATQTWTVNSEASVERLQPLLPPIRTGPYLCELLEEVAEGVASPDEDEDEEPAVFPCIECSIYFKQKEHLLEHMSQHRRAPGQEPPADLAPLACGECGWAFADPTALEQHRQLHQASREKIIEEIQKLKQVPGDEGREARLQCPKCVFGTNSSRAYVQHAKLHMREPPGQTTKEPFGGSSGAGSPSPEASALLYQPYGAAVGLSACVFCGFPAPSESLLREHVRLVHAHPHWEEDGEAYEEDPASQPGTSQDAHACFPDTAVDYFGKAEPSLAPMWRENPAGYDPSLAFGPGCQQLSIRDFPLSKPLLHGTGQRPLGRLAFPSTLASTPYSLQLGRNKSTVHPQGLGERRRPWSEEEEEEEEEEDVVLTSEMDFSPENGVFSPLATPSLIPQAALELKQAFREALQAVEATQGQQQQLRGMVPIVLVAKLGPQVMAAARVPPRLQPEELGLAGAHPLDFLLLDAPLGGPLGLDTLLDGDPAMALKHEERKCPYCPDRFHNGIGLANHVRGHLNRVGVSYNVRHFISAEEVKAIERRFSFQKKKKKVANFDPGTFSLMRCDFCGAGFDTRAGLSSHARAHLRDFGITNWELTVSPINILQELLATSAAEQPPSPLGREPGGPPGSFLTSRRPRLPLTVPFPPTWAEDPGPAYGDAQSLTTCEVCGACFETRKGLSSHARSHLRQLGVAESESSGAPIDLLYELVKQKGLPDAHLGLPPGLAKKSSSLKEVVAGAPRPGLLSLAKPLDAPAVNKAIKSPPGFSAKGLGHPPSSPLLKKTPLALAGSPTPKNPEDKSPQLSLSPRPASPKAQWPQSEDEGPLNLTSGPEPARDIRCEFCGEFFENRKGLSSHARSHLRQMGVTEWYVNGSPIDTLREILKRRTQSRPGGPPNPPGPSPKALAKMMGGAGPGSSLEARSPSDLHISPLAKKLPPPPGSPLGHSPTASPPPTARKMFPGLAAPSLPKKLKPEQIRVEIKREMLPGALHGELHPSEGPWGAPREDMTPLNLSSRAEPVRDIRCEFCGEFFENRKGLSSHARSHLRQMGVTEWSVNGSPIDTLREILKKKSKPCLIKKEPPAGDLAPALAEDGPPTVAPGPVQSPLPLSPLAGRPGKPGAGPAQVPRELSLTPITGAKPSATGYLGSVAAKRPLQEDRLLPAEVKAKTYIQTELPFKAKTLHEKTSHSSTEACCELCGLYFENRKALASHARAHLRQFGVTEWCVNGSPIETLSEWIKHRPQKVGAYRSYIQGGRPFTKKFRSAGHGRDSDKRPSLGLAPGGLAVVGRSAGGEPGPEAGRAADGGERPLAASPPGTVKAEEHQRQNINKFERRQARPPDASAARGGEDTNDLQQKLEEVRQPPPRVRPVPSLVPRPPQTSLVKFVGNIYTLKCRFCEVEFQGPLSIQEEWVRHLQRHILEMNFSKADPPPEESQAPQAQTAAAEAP
T1 sequence (Q96SW2 whole entry, the tested form may be a part): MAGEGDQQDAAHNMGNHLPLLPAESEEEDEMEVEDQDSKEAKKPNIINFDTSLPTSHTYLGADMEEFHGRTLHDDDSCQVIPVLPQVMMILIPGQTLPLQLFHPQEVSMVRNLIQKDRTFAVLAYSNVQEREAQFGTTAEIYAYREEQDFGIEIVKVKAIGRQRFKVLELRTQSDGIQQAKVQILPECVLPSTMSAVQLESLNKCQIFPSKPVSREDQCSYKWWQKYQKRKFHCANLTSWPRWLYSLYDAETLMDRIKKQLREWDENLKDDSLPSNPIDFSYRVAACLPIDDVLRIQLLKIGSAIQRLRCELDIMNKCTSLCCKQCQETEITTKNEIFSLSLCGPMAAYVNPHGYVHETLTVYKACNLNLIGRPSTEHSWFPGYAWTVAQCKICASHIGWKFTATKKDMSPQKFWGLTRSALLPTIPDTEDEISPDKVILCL
T1 sequence (Q16531 whole entry partner, the tested form may be a part): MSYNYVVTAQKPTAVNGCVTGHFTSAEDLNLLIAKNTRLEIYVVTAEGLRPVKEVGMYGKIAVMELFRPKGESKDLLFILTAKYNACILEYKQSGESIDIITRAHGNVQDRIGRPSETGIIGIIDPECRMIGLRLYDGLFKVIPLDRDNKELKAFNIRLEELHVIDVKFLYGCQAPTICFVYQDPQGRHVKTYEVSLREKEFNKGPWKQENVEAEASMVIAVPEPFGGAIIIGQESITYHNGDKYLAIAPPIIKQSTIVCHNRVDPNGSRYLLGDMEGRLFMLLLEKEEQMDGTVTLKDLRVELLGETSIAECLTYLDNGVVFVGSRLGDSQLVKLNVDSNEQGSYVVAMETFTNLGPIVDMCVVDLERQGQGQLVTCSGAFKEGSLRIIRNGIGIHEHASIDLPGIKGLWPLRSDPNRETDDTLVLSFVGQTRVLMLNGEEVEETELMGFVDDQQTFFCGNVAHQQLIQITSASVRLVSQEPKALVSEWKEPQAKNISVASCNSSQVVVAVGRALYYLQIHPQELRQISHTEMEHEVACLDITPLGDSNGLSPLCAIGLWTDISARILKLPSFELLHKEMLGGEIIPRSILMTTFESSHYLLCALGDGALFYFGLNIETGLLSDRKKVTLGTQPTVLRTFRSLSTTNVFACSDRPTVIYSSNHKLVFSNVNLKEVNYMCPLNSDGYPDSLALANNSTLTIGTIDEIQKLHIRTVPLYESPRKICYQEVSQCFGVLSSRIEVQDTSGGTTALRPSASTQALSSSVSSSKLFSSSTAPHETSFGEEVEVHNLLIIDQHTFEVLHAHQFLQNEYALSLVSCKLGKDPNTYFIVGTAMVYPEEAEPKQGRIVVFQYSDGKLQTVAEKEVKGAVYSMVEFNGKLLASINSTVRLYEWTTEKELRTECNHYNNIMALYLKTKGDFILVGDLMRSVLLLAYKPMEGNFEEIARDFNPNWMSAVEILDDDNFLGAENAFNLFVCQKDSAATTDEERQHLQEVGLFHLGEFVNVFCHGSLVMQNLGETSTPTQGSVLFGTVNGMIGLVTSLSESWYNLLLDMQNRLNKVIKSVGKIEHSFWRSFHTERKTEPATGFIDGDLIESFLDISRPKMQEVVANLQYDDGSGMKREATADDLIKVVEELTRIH

As to `O=C1CCN(c2cnn3ccc(CC4CCN(S(=O)(=O)C5CCCC5)CC4)cc23)C(=O)N1` [Example 82], the Dmax at 25 µM turned out to be 90%, the remaining activity at 25 µM came to 10% and the DC50 turned out to be 0.033 µM.
For `O=C1CCN(c2cnn3ccc(CC4CCN(CC5CCCO5)CC4)cc23)C(=O)N1` (stereo not drawn) [Example 15, 1-(5-((1-((tetrahydrofuran-2-yl)methyl)piperidin-4-yl)methyl)pyrazolo[1,5-a]pyridin-3-yl)dihydropyrimidine-2,4(1H,3H)-dione] the same measures were 71%, 29% and 0.523 µM.
For `CC(c1ccccc1)N1CCC(Cc2ccn3ncc(N4CCC(=O)NC4=O)c3c2)CC1` (stereo not drawn) [Example 26, 1-(5-((1-(1-phenylethyl)piperidin-4-yl)methyl)pyrazolo[1,5-a]pyridin-3-yl)dihydropyrimidine-2,4(1H,3H)-dione] the same measures were 76%, 24% and 0.297 µM.
For `O=C1CCN(c2cnn3ccc(CN4CCN5CCOC[C@@H]5C4)cc23)C(=O)N1` [Example 264, (S)-1-(5-((hexahydropyrazino[2,1-c][1,4]oxazin-8(1H)-yl)methyl)pyrazolo[1,5-a]pyridin-3-yl)dihydropyrimidine-2,4(1H,3H)-dione], in that order: 64%, 36% and 0.26 µM.
Consider `C[C@H]1C[C@H](Cc2ccn3ncc(N4CCC(=O)NC4=O)c3c2)CCN1C[C@@H]1CCC(F)(F)C1` [Example 306, 1-(5-(((2S,4R)-1-(((R)-3,3-difluorocyclopentyl)methyl)-2-methylpiperidin-4-yl)methyl)pyrazolo[1,5-a]pyridin-3-yl)dihydropyrimidine-2,4(1H,3H)-dione], for which the Dmax at 25 µM is 84%, the remaining activity at 25 µM is 16% and the DC50 turned out to be 0.008 µM.
For `O=C1CCN(c2cnn3ccc(CC4CCN(Cc5ccccn5)CC4)cc23)C(=O)N1` [Example 111], in that order: 56%, 44% and 0.304 µM.
In the case of `O=C1CCN(c2cnn3ccc(CC4CCN(CC5CCCCC5)C4)cc23)C(=O)N1` (stereo not drawn) [Example 128], the Dmax at 25 µM came out at 29%, the remaining activity at 25 µM was determined as 71% and the DC50 turned out to be 0.83 µM.
For `Cn1cnc(CN2CCN(Cc3ccn4ncc(N5CCC(=O)NC5=O)c4c3)CC2)c1` [Example 196, 1-(5-((4-((1-methyl-1H-imidazol-4-yl)methyl)piperazin-1-yl)methyl)pyrazolo[1,5-a]pyridin-3-yl)dihydropyrimidine-2,4(1H,3H)-dione] the same measures were 41%, 59% and 3.82 µM.
For `O=C1CCN(c2cnn3ccc(CC4C[C@H]5CC[C@@H](C4)N5CC4CCCCC4)cc23)C(=O)N1` (stereo partly drawn) [Example 66, 1-(5-(((1R,5S)-8-(cyclohexylmethyl)-8-azabicyclo[3.2.1]octan-3-yl)methyl)pyrazolo[1,5-a]pyridin-3-yl)dihydropyrimidine-2,4(1H,3H)-dione] the same measures were 72%, 28% and 0.195 µM.
For `O=C1CCN(c2cnn3ccc(CC4CCN(Cc5cscn5)CC4)cc23)C(=O)N1` [Example 115] the same measures were 54%, 46% and 0.267 µM.
On to `CC(C)CN1CC[C@@H](Cc2ccn3ncc(-n4cc(C5CC5)c(=O)[nH]c4=O)c3c2)C[C@@H]1C` [Example 354, 5-cyclopropyl-1-(5-(((2S,4R)-1-isobutyl-2-methylpiperidin-4-yl)methyl)pyrazolo[1,5-a]pyridin-3-yl)pyrimidine-2,4(1H,3H)-dione], for which the Dmax at 25 µM was 0%, the remaining activity at 25 µM is 100% and the DC50 was over 25 µM.
Turning to `O=C1CCN(c2cnn3ccc(CC4CCN(CC5CCCCCC5)CC4)cc23)C(=O)N1` [Example 8, 1-(5-((1-(cycloheptylmethyl)piperidin-4-yl)methyl)pyrazolo[1,5-a]pyridin-3-yl)dihydropyrimidine-2,4(1H,3H)-dione], the Dmax at 25 µM is 86%, the remaining activity at 25 µM worked out at 14% and the DC50 amounted to 0.008 µM.
For `Cc1c(CC2CCN(CC3CCCCC3)CC2)ccn2ncc(N3CCC(=O)NC3=O)c12` [Example 127, 1-(5-((1-(cyclohexylmethyl)piperidin-4-yl)methyl)-4-methylpyrazolo[1,5-a]pyridin-3-yl)dihydropyrimidine-2,4(1H,3H)-dione], in that order: 69%, 31% and 0.013 µM.
For `O=C1CCN(c2cnn3ccc(CC4CCN(CCC5CCCCC5)CC4)cc23)C(=O)N1` [Example 6, 1-(5-((1-(2-cyclohexylethyl)piperidin-4-yl)methyl)pyrazolo[1,5-a]pyridin-3-yl)dihydropyrimidine-2,4(1H,3H)-dione] the same measures were 89%, 11% and 0.013 µM.
For `O=C1CCN(c2cnn3ccc(CC4CCN(CC5CCCC5)CC4)cc23)C(=O)N1` [Example 2, 1-(5-((1-(cyclopentylmethyl)piperidin-4-yl)methyl)pyrazolo[1,5-a]pyridin-3-yl)dihydropyrimidine-2,4(1H,3H)-dione] the same measures were 91%, 9% and 0.023 µM.
On to `O=C1CCN(c2cnn3ccc(CC4CCN(CC5CCOCC5)CC4)cc23)C(=O)N1` [Example 3, 1-(5-((1-((tetrahydro-2H-pyran-4-yl)methyl)piperidin-4-yl)methyl)pyrazolo[1,5-a]pyridin-3-yl)dihydropyrimidine-2,4(1H,3H)-dione], for which the Dmax at 25 µM worked out at 90%, the remaining activity at 25 µM stood at 10% and the DC50 is 0.02 µM.
For `O=C1CCN(c2cnn3ccc(CN4CCN(C(=O)C5(C(F)(F)F)CC5)CC4)cc23)C(=O)N1` [Example 184, 1-(5-((4-(1-(trifluoromethyl)cyclopropane-1-carbonyl)piperazin-1-yl)methyl)pyrazolo[1,5-a]pyridin-3-yl)dihydropyrimidine-2,4(1H,3H)-dione], in that order: 29%, 71% and 1.63 µM.
Consider `O=C1CCN(c2cnn3ccc(CN4CCN(CC(F)(F)C(F)F)CC4)cc23)C(=O)N1` [Example 173], for which the Dmax at 25 µM turned out to be 42%, the remaining activity at 25 µM stood at 58% and the DC50 was found to be 0.771 µM.
For `C[C@H]1CN(Cc2ccn3ncc(N4CCC(=O)NC4=O)c3c2)CCN1CC1CCOCC1` [Example 202], in that order: 85%, 15% and 0.005 µM.
For `CC(C)CN1CCN(Cc2ccn3ncc(N4CCC(=O)NC4=O)c3c2)C(=O)C1` [Example 254, 1-(5-((4-isobutyl-2-oxopiperazin-1-yl)methyl)pyrazolo[1,5-a]pyridin-3-yl)dihydropyrimidine-2,4(1H,3H)-dione], in that order: 0%, 100% and over 25 µM.
Take `CCO[C@H]1CC[C@H](CN2CCC(Cc3ccn4ncc(N5CCC(=O)NC5=O)c4c3)CC2)CC1` [Example 266, 1-(5-((1-(((1r,4r)-4-ethoxycyclohexyl)methyl)piperidin-4-yl)methyl)pyrazolo[1,5-a]pyridin-3-yl)dihydropyrimidine-2,4(1H,3H)-dione]: the Dmax at 25 µM is 81%, the remaining activity at 25 µM was 19% and the DC50 is 0.044 µM.
For `CC(C)CN1CCN(Cc2ccn3ncc(N4CCC(=O)NC4=O)c3c2)[C@@H](C)C1` [Example 222] the same measures were 64%, 36% and 0.457 µM.
For `O=C1CCN(c2cnn3ccc(CN4CCN(Cc5ccccc5)CC4)cc23)C(=O)N1` [Example 165] the same measures were 69%, 31% and 0.198 µM.
For `Cc1ccccc1CN1CCN(Cc2ccn3ncc(N4CCC(=O)NC4=O)c3c2)CC1` [Example 167] the same measures were 57%, 43% and 0.286 µM.
Turning to `CC(C)(CN1CCN(Cc2ccn3ncc(N4CCC(=O)NC4=O)c3c2)CC1)C(F)(F)F` [Example 241, 1-(5-((4-(3,3,3-trifluoro-2,2-dimethylpropyl)piperazin-1-yl)methyl)pyrazolo[1,5-a]pyridin-3-yl)dihydropyrimidine-2,4(1H,3H)-dione], the Dmax at 25 µM stood at 44%, the remaining activity at 25 µM was found to be 56% and the DC50 stood at 0.351 µM.
For `C[C@H]1CN(Cc2ccn3ncc(N4CCC(=O)NC4=O)c3c2)CCN1CC(F)F` [Example 327, (S)-1-(5-((4-(2,2-difluoroethyl)-3-methylpiperazin-1-yl)methyl)pyrazolo[1,5-a]pyridin-3-yl)dihydropyrimidine-2,4(1H,3H)-dione], in that order: 54%, 46% and 0.653 µM.
For `O=C1CCN(c2cnn3ccc(CN4CCN(Cc5ccc(F)cc5)CC4)cc23)C(=O)N1` [Example 168] the same measures were 56%, 44% and 0.127 µM.
